Patent publication US20040052836A1, “Pharmaceutical compositions containing at least one stable liposphere having an improved shelf life” (priority 2002, published 2004)
Counter-ions that a name gives are not always drawn.

Tests used:
[1] = test system: rats; assay: Rat thermal paw flick anesthesia study; format: in vivo; conditions: intraplantar injection 100 μL
Procedure: Liposphere containing bupivacaine (3%), tristearin (6%), and DMPC (0.75%) was tested for its local anesthetic activity in rats. Its activity was compared with that of bupivacaine HCL (3%) solution. The liposphere formulation was prepared as described in Example 1. Adult rats were given an intraplantar injection of 100 μL of either liposphere formulation or bupivacaine HCl solution. Animals were then individually placed into a Hargreaves “hotbox,” in which a beam of light, as a heat source, was focused on the plantar surface of the injected paw at various intervals after treatment. The latency for the rat to withdraw its paw was recorded, up to a maximum of 20 seconds. The earliest time point examined in these studies was 30 min. The latest time point was 120 min for animals treated with bupivacaine HCl solution (by which time latencies had returned to predrug baseline levels), and 1440 min for animals treated with liposphere formulation.

[2] = test system: guinea pigs; assay: Guinea pig wheal anesthesia study (pin-prick); format: in vivo; conditions: subcutaneous 300 μL; 3% liposphere (p<0.043) or 0.5% bupivacaine HCl solution (p<0.008); 1-tailed test; FIG. 3
Procedure: Liposphere formulation containing bupivacaine (3%), tristearin (6%), and DMPC (0.75%) and the liposphere vehicle containing tristearin (6%) and DMPC (0.75%) were evaluated for their anesthesia activities in guinea pigs. The liposphere formulation and vehicle were prepared as described in Example 1. In addition, a solution of bupivacaine HCl (0.5%) and its vehicle (normal saline solution) were evaluated for comparison. In this example, adult guinea pigs were randomly assigned to one of two groups, with each group receiving two subcutaneous injections: one of vehicle and one of the test articles. Half of the animals in each group were given the vehicle on the left side and the test article on the right side. The other half were given the test article on the left side and the vehicle on the right. Injection volume was 300 μL. There were two injections given to each animal. Both groups consisted of eight animals, four of each group received an injection of the vehicle on the left side of the spine, and the remaining four animals received an injection of the vehicle on the right side. […] The “anesthetic action” (the ability of local anesthetics to block the skin reflex in guinea pigs) was determined using the “pin-prick” method. […] The ability of the test compound to block the twitch responses of the guinea pig to six probings with a carefully calibrated needle algesimeter was evaluated. […]

Compound: CCCCN1CCCCC1C(=O)Nc1c(C)cccc1C (stereo not drawn) [bupivacaine HCl solution, bupivacaine HCl]
- duration of anesthesia post injection ([1]; 3% bupivacaine liposphere or 3% bupivacaine HCl solution, paw withdrawal latency, FIG. 2): up to 60 min
- time by which latencies had returned to predrug baseline levels ([1]; bupivacaine HCl 3% solution): ≤ 120 min
- duration of statistically significant anesthesia compared to vehicle [2]: up to 0.75 hours
